Laboratory results published in patent US7608411B2, “Prostaglandin receptor EP1” (Ono Pharmaceutical Co., Ltd., priority 2001, dated 2009).
Residue numbers refer to the chain shown, from its start.

Experiments:
[1] = target: T1, human EP1 receptor of the present invention (Homo sapiens, UniProt P34995); assay: Binding assay of [3H]-PGE2 with membrane fraction of CHO cells expressing human EP1 receptor of the present invention; settings: nonspecific binding with 10 μM PGE2
T1 construct: The cDNA insert was cut off from pT7BluehEP1 by EcoR1 digestion, and inserted into EcoR1 site of expression vector pdKCR-dhfr; expressed in transfected cells; A1 used their membrane fraction, A3 used whole cells
T1 sequence (P34995 1-402): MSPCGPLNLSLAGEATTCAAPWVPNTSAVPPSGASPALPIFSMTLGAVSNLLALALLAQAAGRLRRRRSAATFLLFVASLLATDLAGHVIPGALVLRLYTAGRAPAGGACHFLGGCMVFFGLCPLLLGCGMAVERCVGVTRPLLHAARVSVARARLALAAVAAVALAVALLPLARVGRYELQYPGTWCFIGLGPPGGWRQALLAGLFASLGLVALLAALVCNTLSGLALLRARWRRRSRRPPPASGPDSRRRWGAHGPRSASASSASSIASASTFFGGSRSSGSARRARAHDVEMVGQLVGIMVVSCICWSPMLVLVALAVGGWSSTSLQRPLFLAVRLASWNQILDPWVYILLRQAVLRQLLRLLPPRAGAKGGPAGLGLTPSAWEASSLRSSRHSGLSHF
Protocol: 1) Gene Transfection into CHO Cells and Isolation of Clones Expressing Human EP1 Receptor
The cDNA insert was cut off from pT7BluehEP1 by EcoR1 digestion, and inserted into EcoR1 site of expression vector pdKCR-dhfr in the proper orientation. Approximately 25-50 ug of expression plasmid was digested completely with proper restriction enzymes (SalI, SacII etc.), purified by Phenol/CIAA extraction, CIAA extraction and ethanol precipitation, and dissolved in 50 μl of sterilized water. CHO-dhfr(−) cells used as host were suspended in 1.0-1.5×10^6 cells/0.8 ml of PBSuc buffer (sucrose 272 mM, K^+PO4^2− buffer (7 mM, pH7.4) and MgCl2 (1 mM)). […]
Reaction mixtures (200 μl) containing the membrane fraction, which was prepared by the above method and contains human EP1 receptor, and various concentrations of [3H]-PGE2 were incubated at room temperature for a certain time, separated by rapid filtration using Cell Harvester (Brandel). […] Residual [3H]-PGE2 bound to the filter (total binding) was quantitated by liquid scintillation counter. Nonspecific binding was quantitated in a similar manner in the presence of 10 μM of PGE2. […]
The specific binding thus obtained was analyzed by Scatchard plots, an equilibrium dissociation constant (Kd; nM) and a maximum number of specific binding sites (Bmax; fmol/mg protein) were determined. […]

[2] = target: T2, human EP1 receptor described in Japanese Patent No. 3,090,472 (Homo sapiens, UniProt P34995, A71T/L230H); assay: Binding assay of [3H]-PGE2 with cells expressing human EP1 receptor described in Japanese Patent No. 3,090,472; settings: cells expressing human EP1 receptor of Japanese Patent No. 3,090,472 (reference)
T2 construct: expressed in transfected cells; host or cells: cells expressing the receptor of JP 3,090,472
T2 sequence (P34995 1-402 A71T/L230H): T1 sequence (P34995 1-402) with A71T, L230H
Protocol: Reaction mixtures (200 μl) containing the membrane fraction, which was prepared by the above method and contains human EP1 receptor, and various concentrations of [3H]-PGE2 were incubated at room temperature for a certain time, separated by rapid filtration using Cell Harvester (Brandel). The membrane fraction was recovered on glass filter and washed several times with the buffer cooled on ice (1-2 ml/wash). Residual [3H]-PGE2 bound to the filter (total binding) was quantitated by liquid scintillation counter. Nonspecific binding was quantitated in a similar manner in the presence of 10 μM of PGE2. Specific binding was defined as the difference between total binding and nonspecific binding.
The specific binding thus obtained was analyzed by Scatchard plots, an equilibrium dissociation constant (Kd; nM) and a maximum number of specific binding sites (Bmax; fmol/mg protein) were determined. The result obtained using the cells expressing human EP1 of the present invention was shown in FIG. 1, and the result obtained using the cells expressing human EP1 described in Japanese Patent No. 3,090,472 in FIG. 2, respectively.

[3] = target: T1, human EP1 receptor of the present invention; assay: Measurement of intracellular Ca2+ concentration in cells expressing human EP1 receptor of the present invention; type: cell-based; settings: Fura2-AM fluorescence
Protocol: (§1) The cells were cultured in 500 cm^2 treys to reach confluence, washed with PBS(−), and peeled off by pipeting with PBS(−) on ice. After centrifugation at 800 rpm for 3 minutes, the cell pellet was suspended in medium A (15 ml) and incubated at 37° C. for 50 minutes followed by at room temperature for 10 minutes. After re-centrifugation the pellet was suspended in medium B (1-2×10^6/ml) and used for experiments. In the case that cell suspension contains Fura2-AM (Dojin), the operations were shielded the light by aluminum foil. Stirring the cell suspensions (400 μl) at 600 rpm, the changes of intracellular Ca^2+ concentration were measured by monitoring the changes of fluorescence intensity at both 340 nm and 380 nm and the ratio thereof, using CAM-220 Spectrofluorometer (Nihon Bunko Kogyo).
(§2) Medium A: • α-MEM containing fura2-AM (5 μM)), indomethacin (10 μM), HEPES-NaOH (pH7.4, 10 mM) and 10% FCS,
(§3) Medium B: • α-MEM containing indomethacin (1 μM), HEPES-NaOH (pH7.4, 10 mM) and 0.1% BSA.
(§4) The changes in intracellular Ca^2+ concentration using the cells expressing human EP1 receptor of the present invention and the cells expressing human EP1 receptor described in Japanese Patent No. 3,090,472 were shown in FIG. 3. In FIG. 3, “reference” means the result obtained by using the cells expressing human EP1 receptor described in Japanese Patent No. 3,090,472.

[4] = target: T2, human EP1 receptor described in Japanese Patent No. 3,090,472; assay: Measurement of intracellular Ca2+ concentration in cells expressing human EP1 receptor described in Japanese Patent No. 3,090,472; type: cell-based; settings: cells expressing human EP1 receptor of Japanese Patent No. 3,090,472 (reference); Fura2-AM fluorescence
Protocol: as §1, §2, §3, §4

| Compound | specific binding of [3H]-PGE2 to the receptor [1] | specific binding of [3H]-PGE2 to the receptor [2] | PGE2 dependent elevation of intracellular Ca2+ concentration [3] | PGE2 dependent elevation of intracellular Ca2+ concentration [4] |
| --- | --- | --- | --- | --- |
| CCCCC[C@H](O)/C=C/[C@H]1[C@H](O)CC(=O)[C@@H]1C/C=C\CCCC(=O)O [[^3H]-PGE2] | extremely high specific binding | detected | – | – |
| CCCCC[C@H](O)/C=C/[C@H]1[C@H](O)CC(=O)[C@@H]1C/C=C\CCCC(=O)O [PGE2, prostaglandin E2] | – | – | detected | not detected at all |
